# In patent US20120065267A1, “COMPOSITIONS INCLUDING 3,5-L-T2 AND METHODS OF USE THEREOF” (priority 2010, published 2012):
# Several values for one entry are separate records, joined by “and”; a condition that tells them apart may be missing. Equal entries are not always repeated.
# Experiments:
# [1] = Body weight of mice on Western Diet given low or high dose T2; format: in vivo
# Experimental: (§1) This corresponds to a dosage for an 80 kg human of about 20-200 mg/day, or a low dose of about 0.2-0.3 mg/kg of body weight to a high dose of about 2-3 mg/kg of body weight. One will appreciate, however, that some subjects (e.g., subjects having very low LDL receptor function) may receive higher doses, depending on need. likewise, some subjects may receive lower doses, which again depends on need. Mice in the study were fed a standard lab chow referred to as the “Western Diet.” The overall level of fat and the saturated nature of the fat are representative diets typical in the industrialized west that are linked to risk of cardiovascular disease in humans. The formula is used primarily with genetically manipulated rodent models that are susceptible to high cholesterol and cardiovascular disease. The diet may also be useful in diet-induced obesity, diabetes, and metabolic syndrome models. High cholesterol, obesity, and diabetes are each associated increased risk for cardiovascular disease. The composition of the Western Diet is shown below. C57 is a wild-type strain, LDLr+/− are a strain carrying one functional copy of the LDLr gene, and the LDLr0 animals are total LDLr knockouts. The LDLr gene encodes for the LDL receptor protein, which is responsible for scavenging LDL with bound cholesterol from the blood and transporting it into cells. Both heterozygous and homozygous LDLr knockout animals develop very high serum cholesterol levels and are considered to be a good model for heterozygous and homozygous familial hypercholesterolemia in humans. […] LDLr knockout animals have zero LDL receptor function.
# [2] = system: C57, LDLr+/− and LDLr0 mice; test: Blood sugar (serum glucose) in mice on Western Diet given daily oral T2; format: in vivo; design: Blood Sugar / Blood Sugar Ave: unit not given here; conditions: for Blood Sugar Ave / Blood Sugar: Western Diet
# Experimental: as §1
# [3] = system: thyroid receptor homodimer; conditions: in contrast to T3; cited from earlier work
# [4] = system: TR β gene expression; conditions: relative to T3; cited from earlier work
# [5] = system: rats; conditions: 250 mcg/kg p.o. q.d. for 30 days, cited from earlier work
# [6] = system: growth hormone gene expression; conditions: cited from earlier work
compound,measurement,setting,value
"N[C@@H](Cc1cc(I)c(Oc2ccc(O)cc2)c(I)c1)C(=O)O [T2, (2S)-2-amino-3-[4-(4-hydroxyphenoxy)-3,5-diiodophenyl]propanoic acid]",Body weight,"[1]; LDLr0 mice, Low Dose T2 0.25 mg/kg daily oral, Day 3, individual animal, 0.25 mg/kg, in g (unit assumed)",22.3 and 24.4 and 23.5
same,Body weight (Ave),"[1]; LDLr0 mice, Low Dose T2 0.25 mg/kg daily oral, Day 4, group average",22.3 g
same,Body weight,"[1]; LDLr0 mice, Low Dose T2 0.25 mg/kg daily oral, Day 4, individual animal, 0.25 mg/kg, in g (unit assumed)",21.2 and 22.9 and 22.8
same,Body weight (Ave),"[1]; LDLr0 mice, Low Dose T2 0.25 mg/kg daily oral, Day 5, group average",22.4 g
same,Body weight,"[1]; LDLr0 mice, Low Dose T2 0.25 mg/kg daily oral, Day 5, individual animal, 0.25 mg/kg, in g (unit assumed)",22.0 and 22.2 and 23.0
same,Body weight (Ave),"[1]; LDLr0 mice, Low Dose T2 0.25 mg/kg daily oral, Day 6, group average",22.3 g
same,Body weight,"[1]; LDLr0 mice, Low Dose T2 0.25 mg/kg daily oral, Day 6, individual animal, 0.25 mg/kg, in g (unit assumed)",22.1 and 21.7 and 23.1
same,Body weight (Ave),"[1]; LDLr0 mice, Low Dose T2 0.25 mg/kg daily oral, Day 7, group average",22.2 g
same,Body weight,"[1]; LDLr0 mice, Low Dose T2 0.25 mg/kg daily oral, Day 7, individual animal, 0.25 mg/kg, in g (unit assumed)",22.4 and 20.6 and 23.6
same,Body weight (Ave),"[1]; LDLr+/− mice, High Dose T2 2.5 mg/kg daily oral, Day 1, group average",30.8 g
same,Body weight,"[1]; LDLr+/− mice, High Dose T2 2.5 mg/kg daily oral, Day 1, individual animal, 2.5 mg/kg, in g (unit assumed)",32.8 and 31.8 and 29.8 and 31.4 and 29.2 and 29.6
same,Body weight (Ave),"[1]; LDLr+/− mice, High Dose T2 2.5 mg/kg daily oral, Day 2, group average",31.3 g
same,Body weight,"[1]; LDLr+/− mice, High Dose T2 2.5 mg/kg daily oral, Day 2, individual animal, 2.5 mg/kg, in g (unit assumed)",33.3 and 34.5 and 29.8 and 31.0 and 29.1 and 29.9
same,Body weight (Ave),"[1]; LDLr+/− mice, High Dose T2 2.5 mg/kg daily oral, Day 3, group average",31.1 g
same,Body weight,"[1]; LDLr+/− mice, High Dose T2 2.5 mg/kg daily oral, Day 3, individual animal, 2.5 mg/kg",33.1 and 33.9 and 29.8 (2×) and 30.9 and 29.3
same,Body weight (Ave),"[1]; LDLr+/− mice, High Dose T2 2.5 mg/kg daily oral, Day 4, group average",29.8 g
same,Body weight,"[1]; LDLr+/− mice, High Dose T2 2.5 mg/kg daily oral, Day 4, individual animal, 2.5 mg/kg, in g (unit assumed)",32.1 and 33.0 and 29.0 and 30.1 and 27.9 and 26.8
same,Body weight (Ave),"[1]; LDLr+/− mice, High Dose T2 2.5 mg/kg daily oral, Day 5, group average",29.7 g
same,Body weight,"[1]; LDLr+/− mice, High Dose T2 2.5 mg/kg daily oral, Day 5, individual animal, 2.5 mg/kg, in g (unit assumed)",32.3 and 32.9 and 28.9 and 30.4 and 27.6 and 26.3
same,Body weight (Ave),"[1]; LDLr+/− mice, Low Dose T2 0.25 mg/kg daily oral, Day 1, group average",26.7 g
same,Body weight,"[1]; LDLr+/− mice, Low Dose T2 0.25 mg/kg daily oral, Day 1, individual animal, 0.25 mg/kg, in g (unit assumed)",28.2 and 29.0 and 24.7 and 26.4 and 25.0 and 26.6
same,Body weight (Ave),"[1]; LDLr+/− mice, Low Dose T2 0.25 mg/kg daily oral, Day 2, group average",28.1 g
same,Body weight,"[1]; LDLr+/− mice, Low Dose T2 0.25 mg/kg daily oral, Day 2, individual animal, 0.25 mg/kg, in g (unit assumed)",29.4 and 30.6 and 26.6 and 27.8 and 26.1 and 28.2
same,Body weight (Ave),"[1]; LDLr+/− mice, Low Dose T2 0.25 mg/kg daily oral, Day 3, group average",28.6 g
same,Body weight,"[1]; LDLr+/− mice, Low Dose T2 0.25 mg/kg daily oral, Day 3, individual animal, 0.25 mg/kg, in g (unit assumed)",29.7 and 31.4 and 27.2 and 28.1 and 26.3 and 28.8
same,Body weight (Ave),"[1]; LDLr+/− mice, Low Dose T2 0.25 mg/kg daily oral, Day 4, group average",27.6 g
same,Body weight,"[1]; LDLr+/− mice, Low Dose T2 0.25 mg/kg daily oral, Day 4, individual animal, 0.25 mg/kg, in g (unit assumed)",28.8 and 30.3 and 26.2 and 27.4 and 25.8 and 27.3
same,Body weight (Ave),"[1]; LDLr+/− mice, Low Dose T2 0.25 mg/kg daily oral, Day 5, group average",28.5 g
same,Body weight,"[1]; LDLr+/− mice, Low Dose T2 0.25 mg/kg daily oral, Day 5, individual animal, 0.25 mg/kg, in g (unit assumed)",29.5 and 31.3 and 27.3 and 28.4 and 26.6 and 27.9
same,Body weight (Ave),"[1]; LDLr+/− mice, Low Dose T2 0.25 mg/kg daily oral, Day 6, group average",29.2 g
same,Body weight,"[1]; LDLr+/− mice, Low Dose T2 0.25 mg/kg daily oral, Day 6, individual animal, 0.25 mg/kg, in g (unit assumed)",30.7 and 32.4 and 28.5 and 29.1 and 26.7 and 27.9
same,Body weight (Ave),"[1]; LDLr+/− mice, Low Dose T2 0.25 mg/kg daily oral, Day 7, group average",30 g
same,Body weight,"[1]; LDLr+/− mice, Low Dose T2 0.25 mg/kg daily oral, Day 7, individual animal, 0.25 mg/kg",31.0 and 32.7 and 29.6 (2×) and 28.2 and 29.0
same,effect on weight gain,"[1]; low and high dose T2, all genotypes",did not affect
same,Blood Sugar Ave,"[2]; C57 mice, 1 Week High Dose T2, group average",110.0
same,Blood Sugar,"[2]; C57 mice, 1 Week High Dose T2, individual animals",74 and 158 and 106 and 120 and 92
same,Blood Sugar Ave,"[2]; C57 mice, 1 Week Low Dose T2, group average",170.0
same,Blood Sugar,"[2]; C57 mice, 1 Week Low Dose T2, individual animals",151 and 203 and 186 and 190 and 120
same,Blood Sugar Ave,"[2]; LDLr0 mice, 1 Week High Dose T2, group average",94.0
same,Blood Sugar,"[2]; LDLr0 mice, 1 Week High Dose T2, individual animals",87 and 101
same,Blood Sugar Ave,"[2]; LDLr0 mice, 1 Week Low Dose T2, group average",92.0
same,Blood Sugar,"[2]; LDLr0 mice, 1 Week Low Dose T2, individual animals",143 and 54 and 79
same,Blood Sugar Ave,"[2]; LDLr+/− mice, 1 Week High Dose T2, group average",101.0
same,Blood Sugar,"[2]; LDLr+/− mice, 1 Week High Dose T2, individual animals",108 and 99 and 112 and 94 and 113 and 80
same,Blood Sugar Ave,"[2]; LDLr+/− mice, 1 Week Low Dose T2, group average",201.0
same,Blood Sugar,"[2]; LDLr+/− mice, 1 Week Low Dose T2, individual animals",202 and 146 and 235 and 171 and 242 and 210
same,"lowered blood sugar levels, average","[2]; all genetic groups (C57, LDLr+/−, LDLr0), high dose T2 2.5 mg/kg daily oral, vs controls",45-50%
same,effect on thyroid receptor homodimer formation,[3],no effect
same,less potent than T3 in decreasing TR β gene expression,[4],50%
same,decrease in body weight,[5]; compared to controls,13%
same,decrease in hepatic fat mass,[5]; compared to controls,50%
same,increase in hepatic fat oxidation,[5]; compared to controls,42%
same,lowering of cholesterol,[5]; compared to controls,18%
same,lowering of serum triglycerides,[5]; compared to controls,52%
same,"heart rate, thyroid gland or heart weight, TSH, free T3, free T4, TSH response to TRH",[5],not accompanied by an increase in heart rate
same,potency relative to T3 in increasing growth hormone gene expression,[6],1/100
